Measured values taken from PubChem BioAssay AID248 (DTP/NCI, 2004).
Several values for one entry are separate records, joined by “and”; a condition that tells them apart may be missing. Equal values may be shown once. Toxic doses and inconclusive results are not listed. No stated cut-off is given here; in the data, active means T/C of 150% or more; inactive means T/C below 125%.

System: L1210 leukemia ip in BDF1 mice, survival T/C
Assay: NCI In Vivo Anticancer Drug Screen. Data for tumor model L1210 Leukemia (intraperitoneal) in B6D2F1 (BDF1) mice
Conditions: higher = longer survival
In short: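 Transplanted-tumor mice were given test agent; controls received vehicle only. Survival readings from the two groups were divided (treated over control).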

[1] = endpoint: mean survival time, dose: 100.0 mg/kg/injection, schedule: Q04DX003 (ip), vehicle: saline
[2] = endpoint: mean survival time, dose: 200.0 mg/kg/injection, schedule: Q04DX003 (ip), vehicle: saline
[3] = endpoint: mean survival time, dose: 400.0 mg/kg/injection, schedule: Q01DX009 (ip), vehicle: saline

Measured: T/C

CN(N=O)C(=O)N[C@@H](C=O)[C@@H](O)[C@H](O)[C@H](O)CO
inactive: endpoint: mean survival time, dose: 0.5 mg/kg/injection, schedule: Q03HX040 (ip), vehicle: other 94 % of control | endpoint: mean survival time, dose: 1.0 mg/kg/injection, schedule: Q03HX040 (ip), vehicle: other 98 % of control | endpoint: mean survival time, dose: 2.0 mg/kg/injection, schedule: Q03HX040 (ip), vehicle: other 92 % of control | endpoint: mean survival time, dose: 2.3 mg/kg/injection, schedule: Q01DX009 (ip), vehicle: other 96 % of control and 101 % of control | endpoint: mean survival time, dose: 4.0 mg/kg/injection, schedule: Q03HX040 (ip), vehicle: other 104 % of control | endpoint: mean survival time, dose: 4.5 mg/kg/injection, schedule: Q01DX009 (ip), vehicle: other 92 % of control and 105 % of control | endpoint: mean survival time, dose: 8.0 mg/kg/injection, schedule: Q03HX040 (ip), vehicle: other 112 % of control | endpoint: mean survival time, dose: 8.0 mg/kg/injection, schedule: Q## X009 (ip), vehicle: other 98 % of control | endpoint: mean survival time, dose: 9.0 mg/kg/injection, schedule: Q01DX009 (ip), vehicle: other 99 % of control and 111 % of control | endpoint: mean survival time, dose: 12.5 mg/kg/injection, schedule: Q01DX009 (ip), vehicle: saline 101 % of control and 107 % of control | endpoint: mean survival time, dose: 12.5 mg/kg/injection, schedule: Q01DX009 (ip), vehicle: water 104 % of control | endpoint: mean survival time, dose: 16.0 mg/kg/injection, schedule: Q01DX017 (ip), vehicle: other 107 % of control | endpoint: mean survival time, dose: 16.0 mg/kg/injection, schedule: Q03HX040 (ip), vehicle: other 110 % of control | endpoint: mean survival time, dose: 16.0 mg/kg/injection, schedule: Q## X009 (ip), vehicle: other 94 % of control | endpoint: mean survival time, dose: 17.0 mg/kg/injection, schedule: Q04DX002 (ip), vehicle: other 97 % of control and 113 % of control | endpoint: mean survival time, dose: 24.5 mg/kg/injection, schedule: Q01DX Z (ip), vehicle: water 112 % of control | endpoint: mean survival time, dose: 25.0 mg/kg/injection, schedule: Q01DX009 (ip), vehicle: other 120 % of control | endpoint: mean survival time, dose: 25.0 mg/kg/injection, schedule: Q01DX Z (ip), vehicle: water 115 % of control | endpoint: mean survival time, dose: 25.0 mg/kg/injection, schedule: Q04DX003 (ip), vehicle: saline 96 % of control and 100 % of control | endpoint: mean survival time, dose: 32.0 mg/kg/injection, schedule: Q01DX001 (ip), vehicle: other 100 % of control | endpoint: mean survival time, dose: 32.0 mg/kg/injection, schedule: Q02DX009 (ip), vehicle: other 112 % of control | endpoint: mean survival time, dose: 32.0 mg/kg/injection, schedule: Q04DX005 (ip), vehicle: other 101 % of control | endpoint: mean survival time, dose: 32.0 mg/kg/injection, schedule: Q08DX003 (ip), vehicle: other 101 % of control | endpoint: mean survival time, dose: 32.0 mg/kg/injection, schedule: Q## X009 (ip), vehicle: other 112 % of control | endpoint: mean survival time, dose: 49.5 mg/kg/injection, schedule: Q01DX Z (ip), vehicle: water 120 % of control | endpoint: mean survival time, dose: 50.0 mg/kg/injection, schedule: Q01DX009 (ip), vehicle: citric acid 110 % of control | endpoint: mean survival time, dose: 50.0 mg/kg/injection, schedule: Q04DX002 (ip), vehicle: saline 104 % of control | endpoint: mean survival time, dose: 50.0 mg/kg/injection, schedule: Q04DX003 (ip), vehicle: saline 105 % of control and 110 % of control | endpoint: mean survival time, dose: 64.0 mg/kg/injection, schedule: Q01DX001 (ip), vehicle: other 105 % of control | endpoint: mean survival time, dose: 64.0 mg/kg/injection, schedule: Q04DX005 (ip), vehicle: other 111 % of control | endpoint: mean survival time, dose: 64.0 mg/kg/injection, schedule: Q08DX003 (ip), vehicle: other 104 % of control | endpoint: mean survival time, dose: 67.0 mg/kg/injection, schedule: Q01DX009 (ip), vehicle: citric acid 116 % of control | endpoint: mean survival time, dose: 100.0 mg/kg/injection, schedule: Q01DX001 (ip), vehicle: other 103 % of control | endpoint: mean survival time, dose: 100.0 mg/kg/injection, schedule: Q01DX009 (ip), vehicle: citric acid 123 % of control and 124 % of control and 89 % of control | endpoint: mean survival time, dose: 100.0 mg/kg/injection, schedule: Q01DX009 (ip), vehicle: other 118 % of control | endpoint: mean survival time, dose: 100.0 mg/kg/injection, schedule: Q01DX Z (ip), vehicle: water 117 % of control | endpoint: mean survival time, dose: 100.0 mg/kg/injection, schedule: Q04DX002 (ip), vehicle: saline 120 % of control | [1] 97 % of control | endpoint: mean survival time, dose: 128.0 mg/kg/injection, schedule: Q01DX001 (ip), vehicle: other 114 % of control | endpoint: mean survival time, dose: 128.0 mg/kg/injection, schedule: Q02DX009 (ip), vehicle: other 117 % of control | endpoint: mean survival time, dose: 128.0 mg/kg/injection, schedule: Q04DX005 (ip), vehicle: other 118 % of control | endpoint: mean survival time, dose: 128.0 mg/kg/injection, schedule: Q08DX003 (ip), vehicle: other 111 % of control | endpoint: mean survival time, dose: 138.0 mg/kg/injection, schedule: Q01DX009 (ip), vehicle: other 92 % of control | endpoint: mean survival time, dose: 150.0 mg/kg/injection, schedule: Q01DX009 (ip), vehicle: citric acid 90 % of control | endpoint: mean survival time, dose: 200.0 mg/kg/injection, schedule: Q01DX001 (ip), vehicle: other 122 % of control | [2] 96 % of control and 97 % of control | endpoint: mean survival time, dose: 250.0 mg/kg/injection, schedule: Q01DX001 (ip), vehicle: citric acid 116 % of control | endpoint: mean survival time, dose: 256.0 mg/kg/injection, schedule: Q01DX001 (ip), vehicle: other 110 % of control | endpoint: mean survival time, dose: 256.0 mg/kg/injection, schedule: Q04DX005 (ip), vehicle: other 114 % of control | endpoint: mean survival time, dose: 256.0 mg/kg/injection, schedule: Q08DX003 (ip), vehicle: other 117 % of control | endpoint: mean survival time, dose: 300.0 mg/kg/injection, schedule: Q01DX001 (ip), vehicle: citric acid 118 % of control and 122 % of control | endpoint: mean survival time, dose: 300.0 mg/kg/injection, schedule: Q04DX002 (ip), vehicle: acid diluted with saline 93 % of control | endpoint: mean survival time, dose: 350.0 mg/kg/injection, schedule: Q01DX001 (ip), vehicle: citric acid 112 % of control | endpoint: mean survival time, dose: 400.0 mg/kg/injection, schedule: Q01DX001 (ip), vehicle: citric acid 111 % of control | [3] 108 % of control | endpoint: mean survival time, dose: 400.0 mg/kg/injection, schedule: Q04DX002 (ip), vehicle: saline 93 % of control and 123 % of control | endpoint: mean survival time, dose: 518.0 mg/kg/injection, schedule: Q04DX002 (ip), vehicle: other 95 % of control | endpoint: median survival time, dose: 14.0 mg/kg/injection, schedule: Q01DX009 (ip), vehicle: Klucel (hydroxypropylcellulose) (HPC) 111 % of control | endpoint: median survival time, dose: 17.0 mg/kg/injection, schedule: Q01DX009 (ip), vehicle: water 108 % of control and 114 % of control | endpoint: median survival time, dose: 26.0 mg/kg/injection, schedule: Q01DX009 (ip), vehicle: water 104 % of control and 117 % of control | endpoint: median survival time, dose: 39.0 mg/kg/injection, schedule: Q01DX009 (ip), vehicle: Klucel (hydroxypropylcellulose) (HPC) 116 % of control | endpoint: median survival time, dose: 39.0 mg/kg/injection, schedule: Q01DX009 (ip), vehicle: water 111 % of control | endpoint: median survival time, dose: 87.0 mg/kg/injection, schedule: Q01DX009 (ip), vehicle: water 114 % of control | endpoint: median survival time, dose: 130.0 mg/kg/injection, schedule: Q01DX009 (ip), vehicle: water 86 % of control

CC1(C)N=C(N)N=C(N)N1c1ccc(OCCNS(=O)(=O)c2cccc(S(=O)(=O)F)c2)c(Cl)c1
inactive: endpoint: median survival time, dose: 100.0 mg/kg/injection, schedule: Q01DX001 (ip), vehicle: Klucel (hydroxypropylcellulose) (HPC) 105 % of control | endpoint: median survival time, dose: 200.0 mg/kg/injection, schedule: Q01DX001 (ip), vehicle: Klucel (hydroxypropylcellulose) (HPC) 100 % of control | endpoint: median survival time, dose: 400.0 mg/kg/injection, schedule: Q01DX001 (ip), vehicle: Klucel (hydroxypropylcellulose) (HPC) 105 % of control

CN(C)S(=O)(=O)c1ccc(NC(=O)OC2CCCCCCC2)cc1
inactive: endpoint: mean survival time, dose: 100.0 mg/kg/injection, schedule: Q01DX001 (ip), vehicle: saline 96 % of control | endpoint: mean survival time, dose: 200.0 mg/kg/injection, schedule: Q01DX001 (ip), vehicle: saline 94 % of control | endpoint: mean survival time, dose: 400.0 mg/kg/injection, schedule: Q01DX001 (ip), vehicle: saline 89 % of control

CC(O)COCc1ccccc1 (stereo unspecified)
inactive: endpoint: mean survival time, dose: 100.0 mg/kg/injection, schedule: Q01DX009 (ip), vehicle: saline 103 % of control | [1] 94 % of control | endpoint: mean survival time, dose: 200.0 mg/kg/injection, schedule: Q01DX009 (ip), vehicle: saline 94 % of control | [2] 94 % of control | [3] 97 % of control | endpoint: mean survival time, dose: 400.0 mg/kg/injection, schedule: Q04DX003 (ip), vehicle: saline 90 % of control
